Key:
gastric cancer = details: olaparib added to second-line chemotherapy with paclitaxel; phase III; cited from earlier work
PBMCs = assay: Clinical pharmacodynamic target modulation in PBMCs; format: in vivo; details: in the clinic; recommended Phase 2 dose 60 mg BID
[1] = test system: BBGA087 patient derived gastric cancer xenograft; assay: Efficacy of pamiparib and oxaliplatin + 5-FU on tumor growth in a patient derived gastric cancer xenograft; format: in vivo, female nod-scid mice; details: BBGA087 model, pamiparib 6 mg/kg p.o. BID
Experimental: (§1) Female nod-scid mice were subcutaneously implanted with BBGA087 patient derived gastric tumor tissue fragments (3×3×3 mm3) in the right flank. After inoculation, tumor volume and body weight were measured twice weekly and calculated using the formula: V=0.5×(a×b2) where a and b were the long and short diameters of the tumor, respectively. When the average tumor size reached 200 mm3, animals were randomly assigned into 3 groups. Animals were treated with vehicle (0.5% methylcellulose, 0.5% MC), pamiparib, oxaliplatin plus 5-Fluorouracil (5-FU), respectively. BGB290 was administered at 6 mg/kg by oral gavage (p.o.) twice daily (BID), oxaliplatin was administered by intraperitoneal (i.p.) injection once per week (QW) for three weeks, and 5-FU was administered by intraperitoneal (i.p.) injection once daily with 5 days per week.
(§2) Data is presented as mean tumor volume+standard error of the mean (SEM). Tumor growth inhibition (TGI) is calculated using the following formula: […]

[2] = test system: BBGA087 patient derived gastric cancer xenograft; assay: Pamiparib as maintenance therapy after oxaliplatin + 5-FU treatment in the xenograft model; format: in vivo, female nod-scid mice
Experimental: as §1
After 28 days, mice treated with oxaliplatin and 5-FU were reallocated into 2 groups according to the tumor volume, and were treated with either placebo (0.5% MC) or pamiparib as maintenance therapy.
as §2

SMILES	overall survival (OS) compared with paclitaxel and placebo (gastric cancer)	dose level achieving maximum pharmacodynamic target modulation in PBMCs (PBMCs)	Mean Tumor Volume on Day 28 ([1]; oxaliplatin 5 mg/kg + 5-FU 15 mg/kg i.p.)	TGI (%) on Day 28 ([1]; oxaliplatin 5 mg/kg i.p. QW*3 plus 5-FU 15 mg/kg i.p. QD*5/week*3)	Mean Tumor Volume on Day 32 ([2]; maintenance therapy 6 mg/kg BID after 28 days of oxaliplatin + 5-FU, Day 32)	TGI (%) on Day 32 ([2]; maintenance therapy 6 mg/kg BID after 28 days of oxaliplatin + 5-FU, versus placebo (0.5% MC), Day 32)	tumor relapse on maintenance therapy ([2]; pamiparib 6 mg/kg BID as maintenance versus placebo (0.5% MC) after oxaliplatin + 5-FU)
O=C(c1cc(Cc2n[nH]c(=O)c3ccccc23)ccc1F)N1CCN(C(=O)C2CC2)CC1 [olaparib]	failed to improve overall survival	–	–	–	–	–	–
C[C@]12CCCN1CC1=NNC(=O)c3cc(F)cc4[nH]c2c1c34 [pamiparib]	–	10 mg BID	921 mm3	42%	222 mm3	96%	tumor relapse was delayed
